In US20040259865A1, “Pyrimidone compounds and pharmaceutical compositions containing the same” (priority 2001, published 2004):
Where two headings read alike, the source gives them in different places.

Key:
SD IGS rats [1] = test: Evaluation of defecation-promoting action (Tables 8 and 10); format: in vivo, rat
Description: For example, the defecation-promoting actions of 8-phenyltheophylline (“8-PT” in the table below) and 5-[6-amino-8-(3-fluorophenyl)-9H-9-purinyl]-1-methyl-1,2-di hydro-2-pyridinone (Compound II in the table below) disclosed in Example Number 5 described in WO 2001/2400 were as shown below. 8-PT can be easily produced according to the description of Drug Development Research 47: 45-53 (1999), or is easily available as a commercial product (in this test, it was purchased from Sigma).
That is, SD IGS rats (6- to 7-weeks-old, from Charles River) were placed in cages (3 animals/cage) and preliminarily allowed food and water ad libitum and raised for 1 week. On the day of the experiment, their weight was measured, a water-absorbing sheet was placed below each cage, and the animals were fasted but allowed water ad libitum throughout the experiment. Thee hours after fasting was initiated, the fecal pellets were recovered from each cage and observed for abnormality before the experiment, and then the compound suspended in 0.5% (w/v) methyl cellulose (MC) was orally administered in a dose of 5 ml/kg. On one hand, 0.5% (w/v) MC only was orally given to the control group. After administration of the compound, the rats were returned to the cage provided with a new water-absorbing sheet, and 180 minutes after the administration, the fecal pellets on the water-absorbing sheet were recovered from each cage, and the external appearance was observed, and the number of fecal pellets was counted. The number of fecal pellets is expressed per each cage.

[2] = system: guinea pig distal colon longitudinal muscles; conditions: cited from earlier work; for EC50: KCl in the presence of tetrodotoxin, read-out: Relaxing action EC50
[3] = system: guinea pig distal colon longitudinal muscles; conditions: electrical stimulation, cited from earlier work; for pA2 value of the antagonistic action: against relaxing action of NECA
[4] = Urine volume / diuretic action in rat (Test Example 2); format: in vivo; conditions: for Urine Volume (g/100 g body weight): 180 minutes
Protocol: (§1) SD IGS rats (6-weeks-old, from Charles River) were placed in cages (3 animals/cage) and preliminarily allowed food and water ad libitum and raised for 1 week. On the day of the experiment, their weight was measured, a water-absorbing sheet was placed below each cage, and the animals were fasted but allowed water ad libitum throughout the experiment. Three hours after fasting was initiated, the fecal pellets were recovered from each cage and observed for abnormality before the experiment, and then the compound suspended or dissolved in 0.5% (W/V) methyl cellulose (MC) was orally administered into each rat in a dose of 5 ml/kg. On one hand, 0.5% (W/V) MC only was orally given to the control group. After administering the compound, the rats were returned to the cage provided with anew water-absorbing sheet of known weight, and 180 minutes after the administration, the fecal pellets on the water-absorbing sheet were recovered from each cage, and the external appearance was observed, and the number of fecal pellets was counted. The number of fecal pellets is expressed per each cage (Table 4). After the fecal pellets were recovered, the water-absorbing sheet was weighed, and the weight determined by subtracting the initial weight of the water-adsorbing sheet from the weight after the experiment was regarded as the volume of urine and expressed as the volume of urine per 100 g of the body weight (Table 4).

SD IGS rats [5] = test: Contribution of A2b inhibition to defecation-promoting action (Test Example 3); format: in vivo, rat; conditions: 180 minutes
Protocol: as §1
After administering the compounds, the rats were returned to the cage under which a new water-absorbing sheet had been installed, and after 180 minutes, the fecal pellets on the water-absorbing sheet were recovered from each cage, and the outward appearance was observed and the number of fecal pellets was counted. The number of fecal pellets is expressed per cage (Table 5).

SD IGS rats [6] = test: Defecation-promoting action in rat (Test Example 2); format: in vivo; conditions: for The number of fecalpellets/3 rats: 180 minutes after administration
Protocol: as §1

colon tract [7] = test: Contraction of the colon tract with Carbachol; parameters: species or system rat
Protocol: (§2) The abdomen of a rat under anesthesia with ether was opened, and from the rectum to the cecum was excised therefrom and soaked in ice-cooled Tyrode solution (containing 136 mM NaCl, 2.7 mM KCl, 0.4 mM NaH2PO4.2H2O, 5.6 mM glucose, 11.9 mM NaHCO3, 1 mM MgCl2.6H2O, 1.8 mM CaCl2). Surrounding connective tissues were removed, and the intestinal tract was cut at positions apart by 1.5 cm from the rectum and by 3 cm from the cecum, to give a colon tract of about 3 cm in full length. Both the terminals of the colon tract were pinched respectively with Serrefines (trade name) to which a string had been connected, and the colon tract with the side of the cecum facing upward was immediately suspended in a Magnus tube filled with Tyrode solution previously warmed at 37° C., and then equilibrated by bubbling with a gas (O2/CO2=95/5). The string connected to the Serrefines (trade name) at the side of the cecum was suspended, and the change in the length of the colon tract was detected with an amplifier for strain pressure (Nihon Kohden Corporation).
Carbachol (Sigma) at each concentration diluted 100-fold was added accumulatively in a volume of 1/100 to the Magnus tube, and the change in the length of the colon tract was measured, and the length thereof in the absence of Carbachol was regarded as 0% contraction, and the length thereof in the presence of 1.44 μM Carbachol was regarded as 100% contraction. In the experiment, 3 samples were used.

colon tract [8] = test: Inhibitory effect of adenosine receptor antagonist on suppressing action of NECA on Carbachol-stimulated contraction of the colon tract; parameters: species or system rat; conditions: for Contraction (%) Mean: Carbachol 0.3 μM + NECA 1 μM = 0%, Carbachol 0.3 μM = 100%
Protocol: as §2
(§3) In the experiment, 3 samples were used.

colon tract [9] = test: Inhibitory effect of NECA on Carbachol-stimulated contraction of the colon tract; parameters: species or system rat; conditions: Carbachol 1.44 μM (singly added) = 100%
Protocol: as §2, with “Surrounding” for “The abdomen of a rat under anesthesia with ether was opened, and from the rectum to the cecum was excised therefrom and soaked in ice-cooled Tyrode solution (containing 136 mM NaCl, 2.7 mM KCl, 0.4 mM NaH2PO4.2H2O, 5.6 mM glucose, 11.9 mM NaHCO3, 1 mM MgCl2.6H2O, 1.8 mM CaCl2). Surrounding”
as §3

[10] = against NECA, KCl + tetrodotoxin
[11] = 3 mg/kg oral, Table 8, n = 4 cages/group
[12] = 10 mg/kg oral, Table 8, n = 4 cages/group

## Nc1nc(N)c(-c2ccncc2)c(-c2cccc(F)c2)n1 [Example 1, 6-(3-Flurophenyl)-5-(4-pyridyl)-2,4-pyrimidine diamine]
SD IGS rats [1]; 3 mg/kg oral, Table 10, n = 6 cages/group
  The number of fecalpellets/3 rats: 14.83 ± 1.82 fecalpellets/3 rats
SD IGS rats [1]; 10 mg/kg oral, Table 10, n = 6 cages/group
  The number of fecalpellets/3 rats: 23.17 ± 2.94 fecalpellets/3 rats

## CCCn1c(=O)c2[nH]c(C3CCCC3)nc2n(CCC)c1=O [DPCPX]
[2]; against CPA, KCl + tetrodotoxin
  pA2 value: 7.0
[2]; [10]
  pA2 value: 6.6
[3]
  pA2 value of the antagonistic action: 8.8

## CCCn1c(=O)c2nc(C34CC5CC(CC3C5)C4)[nH]c2n(CCC)c1=O [KW 3902]
[4]; 0.3 mg/kg oral
  Urine Volume (g/100 g body weight): 2.08 ± 0.04 g/100 g body weight
[4]; 1 mg/kg oral
  Urine Volume (g/100 g body weight): 2.15 ± 0.09 g/100 g body weight
[4]; 3 mg/kg oral
  Urine Volume (g/100 g body weight): 2.01 ± 0.06 g/100 g body weight
[4]; rat, oral
  Diuretic action (comparison in words): stronger diuretic action than Compound I
SD IGS rats [5]; 1 mg/kg together with KW 6002 (1 mg/kg)
  The number of fecalpellets/3 rats: 18.25 ± 1.49 fecalpellets/3 rats
SD IGS rats [5]; 1 mg/kg, without KW 6002
  The number of fecalpellets/3 rats: 9.00 ± 1.08 fecalpellets/3 rats
SD IGS rats [6]; 0.3 mg/kg oral
  The number of fecalpellets/3 rats: 10.67 ± 2.08 fecalpellets/3 rats
SD IGS rats [6]; 1 mg/kg oral
  The number of fecalpellets/3 rats: 14.50 ± 1.18 fecalpellets/3 rats
SD IGS rats [6]; 3 mg/kg oral
  The number of fecalpellets/3 rats: 12.83 ± 1.66 fecalpellets/3 rats
SD IGS rats [6]; rat, oral
  Dose at which the defecation-promoting action reaches the maximum: 1 mg/kg
SD IGS rats [6]; rat, oral, Table 4
  Defecation-promoting action (in words): exhibits a defecation-promoting action

## CCNC(=O)[C@H]1O[C@@H](n2cnc3c(N)nc(NCCc4ccc(CCC(=O)O)cc4)nc32)[C@H](O)[C@@H]1O [CGS21680, 2-p-[2-carboxyethyl]phenetylamino-5′-N-ethylarboxyamide adenosine]
[2]; 1 μM, KCl + tetrodotoxin
  Relaxing action (in words): did not act thereon
[3]
  Relaxing action (in words): very weak

## C[N+](C)(C)CCOC(N)=O [Carbachol]
Colon tract [7]; Carbachol 0.01 μM, 1.44 μM Carbachol = 100%
  Contraction (%) Mean: 1.4%
Colon tract [7]; Carbachol 0.04 μM, 1.44 μM Carbachol = 100%
  Contraction (%) Mean: 24.5%
Colon tract [7]; Carbachol 0.14 μM, 1.44 μM Carbachol = 100%
  Contraction (%) Mean: 69.1%
Colon tract [7]; Carbachol 0.44 μM, 1.44 μM Carbachol = 100%
  Contraction (%) Mean: 87.0%
Colon tract [7]; Carbachol 1.44 μM (defined as 100%)
  Contraction (%) Mean: 100.0%

## OC[C@H]1O[C@@H](n2cnc3c(NC4CCCC4)ncnc32)[C@H](O)[C@@H]1O [CPA]
[2]
  EC50: 12.6 µM

## Cn1cc(-n2c(-c3cccc(F)c3)nc3c(N)ncnc32)ccc1=O [Compound II, 5-[6-amino-8-(3-fluorophenyl)-9H-9-purinyl]-1-methyl-1,2-di hydro-2-pyridinone]
SD IGS rats [1]; 1 mg/kg oral, Table 8, n = 4 cages/group
  The number of fecalpellets/3 rats: 12.5 ± 1.44 fecalpellets/3 rats
SD IGS rats [1]; [11]
  The number of fecalpellets/3 rats: 18.5 ± 1.94 fecalpellets/3 rats
SD IGS rats [1]; [12]
  The number of fecalpellets/3 rats: 20.75 ± 1.70 fecalpellets/3 rats

## CCCN1C(=O)N2CC(CC)N=C2c2[nH]c(C34CC5CC(CC3C5)C4)nc21 (stereo not shown) [KW 20274]
Colon tract [8]; antagonist 0.1 μM
  Contraction (%) Mean: −8.2%
Colon tract [8]; antagonist 0.4 μM
  Contraction (%) Mean: −26.0%
Colon tract [8]; antagonist 1.4 μM
  Contraction (%) Mean: −40.0%
Colon tract [8]; antagonist 4.4 μM
  Contraction (%) Mean: −71.0%
Colon tract [8]; rat colon tract, Carbachol + NECA
  Inhibition of the suppressing effect of NECA on the contraction (in words): did not show any inhibitory effect

## Cn1c(=O)c2[nH]c(-c3ccccc3)nc2n(C)c1=O [Example 8-PT, 8-phenyltheophylline]
SD IGS rats [1]; [11]
  The number of fecalpellets/3 rats: 8.75 ± 1.75 fecalpellets/3 rats
SD IGS rats [1]; [12]
  The number of fecalpellets/3 rats: 13.75 ± 0.85 fecalpellets/3 rats
[2]; [10]
  pA2 value: 5.7
[3]
  pA2 value of the antagonistic action: 6.5

## CCNC(=O)[C@H]1O[C@@H](n2cnc3c(N)ncnc32)[C@H](O)[C@@H]1O [NECA, 5′-N-ethylcarboxyamide adenosine]
[2]
  EC50: 10.4 µM
Colon tract [9]; NECA 0.1 μM
  Contraction (%) Mean: 89.0%
Colon tract [9]; NECA 0.4 μM
  Contraction (%) Mean: 75.3%
Colon tract [9]; NECA 14.4 μM
  Contraction (%) Mean: 54.9%
